# Measurements published in ChEMBL document CHEMBL3881527, “Multi-functional small molecules as anti-proliferative agents” (2008).
# Legend:
# [1] = target: Vascular endothelial growth factor receptor 2 (Homo sapiens, UniProt P35968); experiment: Inhibition of N-terminal GST-His6-thrombin cleavage site-fused human VEGFR2 (Asp805 to Val1356 residues) expressed in baculovirus expression system using biotinylated gastrin precursor at Tyr87 as substrate preincubated for 5 mins followed by substrate addition measured after 30 mins by DELFIA method
# Vascular endothelial growth factor receptor 2, sequence (P35968 whole entry, the tested form may be a part): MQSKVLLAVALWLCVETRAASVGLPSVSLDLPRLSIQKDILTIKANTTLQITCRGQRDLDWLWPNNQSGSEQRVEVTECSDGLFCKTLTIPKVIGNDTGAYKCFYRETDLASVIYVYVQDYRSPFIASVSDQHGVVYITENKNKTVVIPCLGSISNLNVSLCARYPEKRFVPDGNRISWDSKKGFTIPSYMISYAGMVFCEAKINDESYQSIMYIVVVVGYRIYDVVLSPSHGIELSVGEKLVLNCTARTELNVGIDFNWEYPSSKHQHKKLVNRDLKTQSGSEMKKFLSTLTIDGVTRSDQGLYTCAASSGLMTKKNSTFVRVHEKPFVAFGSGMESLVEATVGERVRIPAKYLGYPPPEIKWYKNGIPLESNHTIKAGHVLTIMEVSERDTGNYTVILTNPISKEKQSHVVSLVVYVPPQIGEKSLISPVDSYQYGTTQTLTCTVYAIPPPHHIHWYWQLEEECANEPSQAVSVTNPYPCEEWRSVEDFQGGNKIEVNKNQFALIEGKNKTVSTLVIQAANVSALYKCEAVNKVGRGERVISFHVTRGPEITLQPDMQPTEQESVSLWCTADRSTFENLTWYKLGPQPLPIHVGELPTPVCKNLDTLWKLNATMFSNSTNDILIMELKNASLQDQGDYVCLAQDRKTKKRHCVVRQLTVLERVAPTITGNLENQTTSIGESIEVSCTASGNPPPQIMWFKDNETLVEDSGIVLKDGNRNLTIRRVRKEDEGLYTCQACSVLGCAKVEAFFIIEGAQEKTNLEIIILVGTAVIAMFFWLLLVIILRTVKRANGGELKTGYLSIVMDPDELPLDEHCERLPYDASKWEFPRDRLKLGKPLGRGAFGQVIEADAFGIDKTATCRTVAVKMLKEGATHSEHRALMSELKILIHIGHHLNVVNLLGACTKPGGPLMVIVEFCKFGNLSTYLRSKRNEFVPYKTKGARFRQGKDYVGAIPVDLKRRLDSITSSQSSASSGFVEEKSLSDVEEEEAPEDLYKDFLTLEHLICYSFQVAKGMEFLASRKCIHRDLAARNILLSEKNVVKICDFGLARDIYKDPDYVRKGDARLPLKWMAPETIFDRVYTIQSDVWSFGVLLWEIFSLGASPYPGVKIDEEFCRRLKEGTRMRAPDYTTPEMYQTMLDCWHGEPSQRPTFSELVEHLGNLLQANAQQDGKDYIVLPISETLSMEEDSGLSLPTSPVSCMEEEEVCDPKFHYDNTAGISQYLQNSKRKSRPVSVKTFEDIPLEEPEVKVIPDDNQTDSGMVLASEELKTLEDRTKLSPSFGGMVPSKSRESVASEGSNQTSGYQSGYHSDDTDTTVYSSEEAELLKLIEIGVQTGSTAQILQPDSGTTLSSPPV
# [2] = target: Receptor tyrosine-protein kinase erbB-2 (Homo sapiens, UniProt P04626); experiment: Inhibition of N-terminal GST-tagged human HER2 (Lys676 to Val1255 residues) expressed in baculovirus expression system using biotinylated FLT3 at Tyr589 as substrate preincubated for 5 mins followed by substrate addition measured after 30 mins by DELFIA method
# Receptor tyrosine-protein kinase erbB-2, sequence (P04626 whole entry, the tested form may be a part): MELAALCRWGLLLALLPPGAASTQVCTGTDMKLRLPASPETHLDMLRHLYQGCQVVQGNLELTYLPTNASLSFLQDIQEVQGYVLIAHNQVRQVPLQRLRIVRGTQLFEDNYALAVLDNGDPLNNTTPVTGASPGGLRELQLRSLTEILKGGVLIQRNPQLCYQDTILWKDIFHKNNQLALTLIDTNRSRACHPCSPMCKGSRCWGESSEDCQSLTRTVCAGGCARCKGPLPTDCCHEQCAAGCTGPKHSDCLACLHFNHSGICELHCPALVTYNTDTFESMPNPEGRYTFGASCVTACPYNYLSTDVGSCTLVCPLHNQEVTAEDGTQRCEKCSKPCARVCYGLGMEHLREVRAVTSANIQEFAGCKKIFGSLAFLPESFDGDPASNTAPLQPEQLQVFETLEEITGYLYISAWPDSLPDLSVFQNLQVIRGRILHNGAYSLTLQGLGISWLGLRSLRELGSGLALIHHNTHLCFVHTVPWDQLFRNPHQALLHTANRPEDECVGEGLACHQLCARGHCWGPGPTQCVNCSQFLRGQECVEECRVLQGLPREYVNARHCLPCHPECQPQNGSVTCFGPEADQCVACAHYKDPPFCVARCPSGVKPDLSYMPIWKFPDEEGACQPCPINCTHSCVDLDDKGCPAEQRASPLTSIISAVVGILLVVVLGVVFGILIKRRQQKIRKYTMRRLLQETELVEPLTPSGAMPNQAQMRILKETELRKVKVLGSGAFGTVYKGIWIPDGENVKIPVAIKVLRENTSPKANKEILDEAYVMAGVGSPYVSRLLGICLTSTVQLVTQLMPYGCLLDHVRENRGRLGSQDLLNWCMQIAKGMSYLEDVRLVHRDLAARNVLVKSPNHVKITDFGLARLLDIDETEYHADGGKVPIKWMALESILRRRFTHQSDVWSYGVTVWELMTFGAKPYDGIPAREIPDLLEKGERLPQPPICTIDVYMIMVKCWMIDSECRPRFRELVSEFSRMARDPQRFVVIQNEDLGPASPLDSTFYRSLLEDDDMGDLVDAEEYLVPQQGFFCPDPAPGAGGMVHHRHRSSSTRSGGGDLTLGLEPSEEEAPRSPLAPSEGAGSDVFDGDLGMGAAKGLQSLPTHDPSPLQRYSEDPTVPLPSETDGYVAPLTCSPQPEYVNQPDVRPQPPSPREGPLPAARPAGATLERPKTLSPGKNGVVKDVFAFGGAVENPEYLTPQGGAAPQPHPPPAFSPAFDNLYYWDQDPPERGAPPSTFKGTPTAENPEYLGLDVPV
# [3] = target: Epidermal growth factor receptor (Homo sapiens, UniProt P00533); experiment: Inhibition of N-terminal GST-fused human EGFR (His672 to Ala1210 residues) expressed in baculovirus expression system using biotinylated PTP1B at Tyr66 as substrate preincubated for 5 mins followed by substrate addition measured after 30 mins by DELFIA
# [4] = target: Proto-oncogene tyrosine-protein kinase Src (Homo sapiens, UniProt P12931); experiment: (§1) Inhibition of human N-terminal GST-tagged full length human Src (Met1 to Leu536 residues) expressed in baculovirus expression system assessed as decrease in biotin signal transduction protein phosphorylation at Tyr160 preincubated for 5 mins followed by substrate addition measured after 30 mins by DELFIA method
# Proto-oncogene tyrosine-protein kinase Src, sequence (P12931 2-536 limits assumed): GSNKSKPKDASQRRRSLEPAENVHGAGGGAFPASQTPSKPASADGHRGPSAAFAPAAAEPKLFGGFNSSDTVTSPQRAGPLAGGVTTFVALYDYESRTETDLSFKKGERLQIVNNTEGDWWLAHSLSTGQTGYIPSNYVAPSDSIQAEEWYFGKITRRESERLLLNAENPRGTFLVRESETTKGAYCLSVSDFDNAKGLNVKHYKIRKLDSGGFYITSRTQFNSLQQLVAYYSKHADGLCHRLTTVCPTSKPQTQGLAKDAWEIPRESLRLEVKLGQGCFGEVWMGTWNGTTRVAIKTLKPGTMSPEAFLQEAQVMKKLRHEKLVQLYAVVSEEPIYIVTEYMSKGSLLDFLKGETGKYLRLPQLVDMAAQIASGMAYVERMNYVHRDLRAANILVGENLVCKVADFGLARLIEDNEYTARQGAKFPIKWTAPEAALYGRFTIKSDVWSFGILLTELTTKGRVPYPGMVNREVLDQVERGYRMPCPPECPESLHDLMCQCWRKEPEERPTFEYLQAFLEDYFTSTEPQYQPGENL
# [5] = target: Tyrosine-protein kinase ABL1 (Homo sapiens, UniProt P00519); experiment: as §1, with “GST-tagged” for “GST-tagged full length”, “Abl1 (Pro118” for “Src (Met1”, “Ser553” for “Leu536”
# [6] = target: Platelet-derived growth factor receptor beta (Homo sapiens, UniProt P09619); experiment: Inhibition of N-terminal GST-His6-thrombin cleavage site-fused human PDGFRbeta (Arg561 to Leu1106 residues) assessed as decrease in biotinylated FLT3 phosphorylation at Tyr589 preincubated for 5 mins followed by substrate addition measured after 30 mins by DELFIA method
# Platelet-derived growth factor receptor beta, sequence (P09619 whole entry, the tested form may be a part): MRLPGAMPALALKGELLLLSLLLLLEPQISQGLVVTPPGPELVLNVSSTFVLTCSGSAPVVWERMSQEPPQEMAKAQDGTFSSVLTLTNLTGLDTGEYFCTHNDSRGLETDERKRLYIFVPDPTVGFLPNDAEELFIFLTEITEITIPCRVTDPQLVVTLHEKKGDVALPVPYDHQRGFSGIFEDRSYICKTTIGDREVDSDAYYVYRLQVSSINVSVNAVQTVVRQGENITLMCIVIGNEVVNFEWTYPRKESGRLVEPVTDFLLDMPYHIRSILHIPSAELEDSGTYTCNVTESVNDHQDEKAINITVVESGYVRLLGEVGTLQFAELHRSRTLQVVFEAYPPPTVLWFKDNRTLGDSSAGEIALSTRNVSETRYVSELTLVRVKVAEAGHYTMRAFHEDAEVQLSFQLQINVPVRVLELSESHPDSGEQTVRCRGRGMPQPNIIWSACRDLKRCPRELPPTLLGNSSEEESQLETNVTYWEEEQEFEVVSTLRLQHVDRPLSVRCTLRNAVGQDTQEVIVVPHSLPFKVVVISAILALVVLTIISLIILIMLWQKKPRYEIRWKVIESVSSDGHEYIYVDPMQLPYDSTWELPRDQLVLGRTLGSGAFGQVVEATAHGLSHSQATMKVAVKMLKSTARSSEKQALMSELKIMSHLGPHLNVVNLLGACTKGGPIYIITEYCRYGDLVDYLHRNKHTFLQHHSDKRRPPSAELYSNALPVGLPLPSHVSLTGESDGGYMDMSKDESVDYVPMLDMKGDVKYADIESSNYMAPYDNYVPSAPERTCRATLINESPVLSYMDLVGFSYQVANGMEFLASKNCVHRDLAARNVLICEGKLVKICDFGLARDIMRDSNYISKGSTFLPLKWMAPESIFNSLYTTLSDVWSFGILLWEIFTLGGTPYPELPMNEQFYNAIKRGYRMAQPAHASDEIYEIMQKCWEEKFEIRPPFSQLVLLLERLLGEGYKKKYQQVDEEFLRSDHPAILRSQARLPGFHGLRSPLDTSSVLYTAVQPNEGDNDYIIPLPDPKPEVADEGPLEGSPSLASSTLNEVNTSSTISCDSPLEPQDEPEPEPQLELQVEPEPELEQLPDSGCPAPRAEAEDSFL
Structure (SMILES),IC50 [1] [nM],IC50 [2] [nM],IC50 [3] [nM],IC50 [4] [nM],IC50 [5] [nM],IC50 [6] [nM]
C[C@@H](Nc1ncnc2[nH]c(-c3ccc(C(=O)NCCNCCCCCC(=O)NO)cc3)cc12)c1ccccc1,100 to 1000,100 to 1000,≤ 100,,,
C#Cc1cccc(Nc2ncnc3cc(OCCCCCCC(=O)NO)c(OCCOC)cc23)c1,,100 to 1000,,,,
C[C@@H](Nc1ncnc2[nH]c(-c3ccc(CN4CCN(CCC(=O)NO)CC4)cc3)cc12)c1ccccc1,100 to 1000,≤ 100,≤ 100,,,
Cc1[nH]c(/C=C2\C(=O)Nc3ccc(F)cc32)c(C)c1C(=O)NCCCCCC(=O)N(C)O,≤ 100,,,,,
C[C@@H](Nc1ncnc2[nH]c(-c3ccc(NC(=O)CCCCC(=O)NO)cc3)cc12)c1ccccc1,100 to 1000,100 to 1000,≤ 100,,,
C#Cc1cccc(Nc2ncnc3cc(OC)c(OCC(=O)NO)cc23)c1,,≤ 100,,,,
C[C@@H](Nc1ncnc2[nH]c(-c3ccc(CN4CCC(NCCCCCCCC(=O)NO)CC4)cc3)cc12)c1ccccc1,,≤ 100,,,,
C[C@@H](Nc1ncnc2[nH]c(-c3ccc(CN4CCN(CCCCCC(=O)NO)CC4)cc3)cc12)c1ccccc1,100 to 1000,100 to 1000,,,,
C[C@@H](Nc1ncnc2[nH]c(-c3ccc(OCCCCCCC(=O)NO)cc3)cc12)c1ccc(F)cc1,1000 to 10000,100 to 1000,100 to 1000,,,
Cc1nc(N)cc(N(CC(=O)NO)c2ncc(C(=O)Nc3c(C)cccc3Cl)s2)n1,,,,100 to 1000,100 to 1000,
Cc1[nH]c(/C=C2\C(=O)Nc3ccc(F)cc32)c(C)c1C(=O)NCCCCCCC(=O)NO,≤ 100,,,,,100 to 1000
C[C@@H](Nc1ncnc2[nH]c(-c3ccc(NC(=O)CCCCCCC(=O)NO)cc3)cc12)c1ccccc1,100 to 1000,100 to 1000,≤ 100,,,
Cc1nc(Nc2ncc(C(=O)Nc3c(C)cccc3Cl)s2)cc(N2CCN(CC(=O)NO)CC2)n1,,,,≤ 100,≤ 100,≤ 100
C[C@@H](Nc1ncnc2[nH]c(-c3ccc(NCc4ccc(C(=O)NO)cc4)cc3)cc12)c1ccccc1,1000 to 10000,100 to 1000,≤ 100,,,
O=C(CCCCCNCc1ccc(-c2ccc3ncnc(Nc4ccc(OCc5cccc(F)c5)c(Cl)c4)c3c2)o1)NO,,≤ 100,,,,
C[C@@H](Nc1ncnc2[nH]c(-c3ccc(CN4CCN(CCCCC(=O)NO)CC4)cc3)cc12)c1ccccc1,100 to 1000,100 to 1000,≤ 100,,,
COCCOc1cc2ncnc(Nc3ccc(F)c(Cl)c3)c2cc1OCCCCCCC(=O)NO,,100 to 1000,,,,
C[C@@H](Nc1ncnc2[nH]c(-c3ccc(C(=O)NCCNCCC(=O)NO)cc3)cc12)c1ccccc1,100 to 1000,100 to 1000,≤ 100,,,
C[C@@H](Nc1ncnc2[nH]c(-c3ccc(OCC(=O)NO)cc3)cc12)c1ccccc1,1000 to 10000,≤ 100,≤ 100,,,
COc1cc2c(Nc3ccc(F)c(Cl)c3)ncnc2cc1OCCCCCCC(=O)NO,,100 to 1000,,,,
C[C@@H](Nc1ncnc2[nH]c(-c3ccc(CN4CCN(CCCCCCC(=O)NO)CC4)cc3)cc12)c1ccccc1,100 to 1000,≤ 100,≤ 100,,,
O=C(CCCCCN1CCN(Cc2ccc(-c3cc4c(NCc5ccccc5)ncnc4[nH]3)cc2)CC1)NO,100 to 1000,100 to 1000,100 to 1000,,,

Structure (SMILES),IC50 [1] [nM],IC50 [2] [nM],IC50 [3] [nM],IC50 [4] [nM],IC50 [5] [nM],IC50 [6] [nM]
O=C(CCCCOc1cc(Oc2ccc(NC(=O)Nc3ccc(Cl)c(C(F)(F)F)c3)cc2)ccn1)NO,≤ 100,,,,,
C[C@@H](Nc1ncnc2[nH]c(-c3ccc(NCCCCCC(=O)NO)cc3)cc12)c1ccccc1,≤ 100,≤ 100,≤ 100,,,
C[C@@H](Nc1ncnc2[nH]c(-c3ccc(C(=O)NCCNCCCCCCC(=O)NO)cc3)cc12)c1ccccc1,100 to 1000,100 to 1000,≤ 100,,,
C[C@@H](Nc1ncnc2[nH]c(-c3ccc(OCCNCCCCCCC(=O)NO)cc3)cc12)c1ccccc1,≤ 100,≤ 100,≤ 100,,,
C[C@@H](Nc1ncnc2[nH]c(-c3ccc(CNCCCCCCC(=O)NO)cc3)cc12)c1ccccc1,100 to 1000,100 to 1000,≤ 100,,,
C[C@@H](Nc1ncnc2[nH]c(-c3ccc(NC(=O)CCCC(=O)NO)cc3)cc12)c1ccccc1,100 to 1000,100 to 1000,≤ 100,,,
O=C(CCCCCCOc1ccc2ncnc(Nc3ccc(OCc4cccc(F)c4)c(Cl)c3)c2c1)NO,,≤ 100,,,,
C[C@@H](Nc1ncnc2[nH]c(-c3ccc(OCCNCCCCCCCC(=O)NO)cc3)cc12)c1ccccc1,,≤ 100,,,,
C[C@@H](Nc1ncnc2[nH]c(-c3ccc(OCCCCCC(=O)NO)cc3)cc12)c1ccccc1,1000 to 10000,100 to 1000,≤ 100,,,
C#Cc1cc(Nc2ncnc3cc(OC)c(OCCCCCCC(=O)NO)cc23)ccc1O,,≤ 100,,,,
C[C@@H](Nc1ncnc2[nH]c(-c3ccc(CNCc4ccc(C(=O)NO)cc4)cc3)cc12)c1ccccc1,100 to 1000,100 to 1000,≤ 100,,,
COc1cc2ncnc(Nc3ccc(F)c(Cl)c3)c2cc1SCCCCC(=O)NO,,≤ 100,,,,
O=C(CCCCCCNCc1cc(Oc2ccc(NC(=O)Nc3ccc(Cl)c(C(F)(F)F)c3)cc2)ccn1)NO,100 to 1000,,,,,
O=C(CCCC(=O)Nc1cc(Oc2ccc(NC(=O)Nc3ccc(Cl)c(C(F)(F)F)c3)cc2)ccn1)NO,≤ 100,,,,,
Cc1nc(NCCNCC(=O)NO)cc(Nc2ncc(C(=O)Nc3c(C)cccc3Cl)s2)n1,,,,≤ 100,≤ 100,
C[C@@H](Nc1ncnc2[nH]c(-c3ccc(NCCCCCCC(=O)NO)cc3)cc12)c1ccccc1,100 to 1000,≤ 100,≤ 100,,,
COc1cc2ncnc(Nc3ccc(OCc4cccc(F)c4)c(Cl)c3)c2cc1OCCCCCCC(=O)NO,,≤ 100,,,,
C[C@@H](Nc1ncnc2[nH]c(-c3ccc(OCCCCC(=O)NO)cc3)cc12)c1ccccc1,100 to 1000,100 to 1000,≤ 100,,,
C[C@@H](Nc1ncnc2[nH]c(-c3ccc(CNCc4ccc(/C=C/C(=O)NO)cc4)cc3)cc12)c1ccccc1,≥ 10000,≥ 10000,≥ 10000,,,
C[C@@H](Nc1ncnc2[nH]c(-c3ccc(OCCCC(=O)NO)cc3)cc12)c1ccccc1,100 to 1000,100 to 1000,≤ 100,,,
Cc1[nH]c(/C=C2\C(=O)Nc3ccc(F)cc32)c(C)c1C(=O)NCCCCCCCC(=O)NO,≤ 100,,,,,100 to 1000
Cc1[nH]c(/C=C2\C(=O)Nc3ccc(F)cc32)c(C)c1C(=O)NCCCCCC(=O)NO,≤ 100,,,,,≤ 100

Structure (SMILES),IC50 [1] [nM],IC50 [2] [nM],IC50 [3] [nM],IC50 [4] [nM],IC50 [5] [nM],IC50 [6] [nM]
C[C@@H](Nc1ncnc2[nH]c(-c3ccc(CNCCCCCC(=O)NO)cc3)cc12)c1ccccc1,100 to 1000,100 to 1000,≤ 100,,,
Cc1[nH]c(/C=C2\C(=O)Nc3ccc(F)cc32)c(C)c1C(=O)NCCCC(=O)NO,≤ 100,,,,,≤ 100
C[C@@H](Nc1ncnc2[nH]c(-c3ccc(OCCCCCCC(=O)NO)cc3)cc12)c1ccccc1,≤ 100,100 to 1000,≤ 100,,,
C[C@@H](Nc1ncnc2[nH]c(-c3ccc(NCc4ccc(/C=C/C(=O)NO)cc4)cc3)cc12)c1ccccc1,1000 to 10000,,≤ 100,,,
O=C(Nc1ccc(Oc2ccnc(C(=O)NO)c2)cc1)Nc1ccc(Cl)c(C(F)(F)F)c1,1000 to 10000,,,,,
COc1cc2ncnc(Nc3ccc(F)c(Cl)c3)c2cc1SCCCCCCC(=O)NO,,≤ 100,,,,
O=C(CCCCCCCNCc1cc(Oc2ccc(NC(=O)Nc3ccc(Cl)c(C(F)(F)F)c3)cc2)ccn1)NO,100 to 1000,,,,,
COCCOc1cc2c(Nc3ccc(F)c(Cl)c3)ncnc2cc1OCCCCCCC(=O)NO,,100 to 1000,,,,
Cc1nc(Nc2ncc(C(=O)Nc3c(C)cccc3Cl)s2)cc(N2CCN(CCCC(=O)NO)CC2)n1,,,,≤ 100,≤ 100,
C#Cc1cccc(Nc2ncnc3cc(OCCCCCCC(=O)NO)c(OC)cc23)c1,,100 to 1000,,,,
C[C@@H](Nc1ncnc2[nH]c(-c3ccc(C(=O)NO)cc3)cc12)c1ccccc1,100 to 1000,≤ 100,≤ 100,,,
COc1cc2ncnc(Nc3ccc(F)c(Cl)c3)c2cc1OCCCCCCC(=O)NO,100 to 1000,≤ 100,3.1,,,
O=C(CCCC(=O)NCc1cc(Oc2ccc(NC(=O)Nc3ccc(Cl)c(C(F)(F)F)c3)cc2)ccn1)NO,≤ 100,,,,,
C[C@@H](Nc1ncnc2c1cc(-c1ccc(C(=O)NCCNCCCCCCC(=O)NO)cc1)n2C)c1ccccc1,1000 to 10000,100 to 1000,,,,
Cc1[nH]c(/C=C2\C(=O)Nc3ccc(F)cc32)c(C)c1C(=O)NCCOc1ccc(/C=C/C(=O)NO)cc1,≤ 100,,,,,
C[C@@H](Nc1ncnc2[nH]c(-c3ccc(NC(=O)CCC(=O)NO)cc3)cc12)c1ccccc1,100 to 1000,100 to 1000,≤ 100,,,
C[C@@H](Nc1ncnc2[nH]c(-c3ccc(CNCC(=O)NO)cc3)cc12)c1ccccc1,,1000 to 10000,1000 to 10000,,,
C#Cc1cccc(Nc2ncnc3cc(OC)c(NC(=O)CCCCCCC(=O)NO)cc23)c1,,100 to 1000,,,,
C[C@@H](Nc1ncnc2[nH]c(-c3ccc(CN4CCN(CCCC(=O)NO)CC4)cc3)cc12)c1ccccc1,100 to 1000,≤ 100,≤ 100,,,
O=C(CCCCCCOc1ccc(-c2cc3c(NCc4ccccc4)ncnc3[nH]2)cc1)NO,1000 to 10000,1000 to 10000,100 to 1000,,,
